Test results taken from patent publication US20250042889A1, “3CLPRO PROTEASE INHIBITOR” (SHANGHAI QILU PHARMACEUTICAL RESEARCH AND DEVELOPMENT …, priority 2021, published 2025).
Where two headings read alike, the source gives them in different places.

Legend:
[1] = Pharmacokinetics in vivo experiment in cynomolgus macaques; conditions: male, cynomolgus monkey, 10 mg/kg; for AUC / Cmax / Tmax: in vivo, po; for half-life: plasma, cynomolgus macaque, oral administration
Description: • Basic information of animals • Species: cynomolgus macaque • Grade: conventional grade • Quantity: 18 cynomolgus macaques (male) were used in the drug administration experiment. • Weight: about 2.5 to 4.5 kg • Age: 3 to 5 years old • Source: Huazhen Animal Farm, Conghua City (General Partnership)
There are 9 male cynomolgus macaques, 3 cynomolgus macaques/group, 3 groups in total. The animals were fasted for 12 hours before administration, and the test solution was administered by gavage (10 mg/kg), and the administration volume was 2.5 mL/kg.
The blood was placed on wet ice, and centrifuged at 1700 g at 4° C. for 10 min within 1.5 h after collection. After centrifugation, the plasma was taken and added into a detection tube. Plasma samples can be stored in a refrigerator below-20° C. within 2 hours after centrifugation.
WinNonlin 8.1.0.3530 was used to calculate pharmacokinetic parameters.

[2] = molecular target: SARS-COV-2 3CLpro/Mpro protease (Severe acute respiratory syndrome coronavirus 2 (2019-nCoV) (SARS-CoV-2), UniProt P0DTD1); experiment: Inhibitory effect on SARS-COV-2 3CLpro/Mpro protease by fluorescence resonance energy transfer; format: biochemical; conditions: activity intervals A-D
[3] = male, CD1, mouse, in vivo, po, 10 mg/kg
in vivo = conditions: male, CD1, mouse
[4] = Pharmacokinetics in vivo experiment in CD1 mice; conditions: oral administration, 10 mg/kg
[5] = read-out: IC50 (nM), Inhibition on SARS-CoV-2 3CLpro/Mpro protease

SMILES	AUC [1] [ng·h/mL]	Cmax [1] [ng/mL]	Tmax [1] [min]	half-life [1] [min]	IC50 [2, 5] [nM]	F [3] [%]	AUC (in vivo; in vivo, iv, 1 mg/kg) [ng·h/mL]	Vd (in vivo; in vivo, iv, 1 mg/kg) [L/kg]	clearance (in vivo; in vivo, iv, 1 mg/kg) [mL/min/kg]	AUC (in vivo; in vivo, po, 10 mg/kg) [ng·h/mL]	Cmax (in vivo; in vivo, po, 10 mg/kg) [ng/mL]	half-life (in vivo; plasma, po, 10 mg/kg) [min]	half-life (in vivo; plasma, iv, 1 mg/kg) [min]	IC50 ([2]; IC50 (nM), Inhibition on SARS-CoV-2 3CLpro/Mpro protease) [nM]	F [4] [%]	half-life (in vivo; in vivo, iv, 1 mg/kg) [min]	half-life (in vivo; in vivo, po, 10 mg/kg) [min]
CNc1cncc(C(=O)N2CCC[C@@H](Nc3c(C(=O)N4CCCCC4)cc(Br)cc3[N+](=O)[O-])C2)c1 [Example 31, (R)-(5-bromo-2-((1-(5-(methylamino)nicotinoyl)piperidin-3-yl)amino)-3-nitrophenyl)(piperidin-1-yl)methanone]	454	232	79.8	29.4	10 to 50	42.1	88	1.56	11.6	369	401	15	–	–	–	–	–
CNc1cncc(C(=O)N2CCC[C@@H](Nc3c(C(=O)N4C[C@@H](C)O[C@@H](C)C4)cc(Br)cc3[N+](=O)[O-])C2)c1 [Example 34, (5-Bromo-2-((R)-1-(5-(methylamino)nicotinoyl)piperidin-3-yl)amino)-3-nitrophenyl ((2R,6S)-2,6-dimethylmorpholinyl)methanone]	4090	1960	79.8	35	10 to 50	63	107	1.02	9.4	702	1020	30	6.84	–	–	–	–
CNc1cncc(C(=O)N2CCC[C@@H](Nc3c(C(=O)N4CCOC(F)(F)C4)cc(Br)cc3[N+](=O)[O-])C2)c1 [Example 295]	–	–	–	–	10 to 50	36.3	136	1.06	7.4	494	697	11.6	7.62	–	–	–	–
CNc1cncc(C(=O)N2CCC[C@@H](Nc3c(C(=O)N4C5CCCC4COC5)cc(Br)cc3[N+](=O)[O-])C2)c1 [Example 312]	–	–	–	–	–	–	95	1.38	10.6	605	594	–	–	10 to 50	65.5	7.68	46.1
O=C(c1cc(Br)cc([N+](=O)[O-])c1N[C@@H]1CCCN(C(=O)[C@H]2CNCC(F)(F)C2)C1)N1CCCCC1 [Example 320]	–	–	–	–	10 to 50	27.7	156	2.1	6.3	280	825	26.2	21.6	–	–	–	–
CNc1cncc(C(=O)N2C[C@H](Nc3c(C(=O)N4C[C@@H](C)O[C@@H](C)C4)cc(Br)cc3[N+](=O)[O-])[C@@H](OC)C2)c1 [Example 321]	994	699	70.2	–	10 to 50	84.7	153	7.1	6.2	1350	1640	144	96	–	–	–	–
CNc1cncc(C(=O)N2C[C@H](Nc3c(C(=O)N4C[C@@H](C)O[C@@H](C)C4)cc(Br)cc3[N+](=O)[O-])C[C@@H](OC)C2)c1 [Example 422]	–	–	–	–	50 to 100	62.6	102	1.32	9.82	628	725	19.2	6.36	–	–	–	–
